Patent US4182769A, “Anti-inflammatory 1-substituted-4,5-diaryl-2-(substituted-thio) imidazoles and their corresponding sulfoxides and sulfones” (E. I. Du Pont de Nemours and Company, priority 1978, dated 1980)
Where two headings read alike, the source gives them in different places.

System: adjuvant-induced arthritis in rats
Assay: Established Adjuvant-Induced Arthritis in Rats (A.A.)
Assay type: in vivo, Charles River Lewis male rats
Conditions: for ED50: Rattus norvegicus, read-out: A.A. ED50 % (ED50% decrease from control paw volume)
[1] = oral, 7 daily doses, rats, determined as % paw volume reduction from control (uninjected, left hind paw)

Question: With `CC(=O)Oc1ccccc1C(=O)O` [Aspirin, reference compound] as the compound, how does the ED50 (po) read?
Answer: Its ED50 is 305 mg/kg.

Question: `FC(F)(F)Sc1nc(-c2ccccc2)c(-c2ccccc2)n1COCc1ccccc1` [Example 1, 1-Benzyloxymethyl-4,5-diphenyl-2-trifluoromethylthioimidazole] was tested. Which “% paw volume reduction from control” value (@ 10 mg/Kg, oral, rats) did it give?
Answer: The value was 34%.

Question: And the ED50 [1]?
Answer: Its ED50 is greater than 10 mg/kg.

Question: How did the ED50 [1] turn out when `FC(F)C(F)(F)Sc1nc(-c2ccccc2)c(-c2ccccc2)n1COCc1ccccc1` [Example 2, 1-Benzyloxymethyl-4,5-diphenyl-2-(1,1,2,2-tetrafluoroethylthio)imidazole] was run?
Answer: Its ED50 is 3.7 mg/kg.

Question: For `CCOC(=O)n1c(SC(F)(F)C(F)F)nc(-c2ccccc2)c1-c1ccccc1` [Example 3, 4,5-Diphenyl-1-ethoxycarbonyl-2-(1,1,2,2-tetrafluoroethylthio)imidazole], which ED50 [1] is on record?
Answer: The ED50 was 2.3 mg/kg.

Question: `O=S(=O)(c1nc(-c2ccccc2)c(-c2ccccc2)n1COCc1ccccc1)C(F)(F)C(F)F` [Example 4, 1-Benzyloxymethyl-4,5-diphenyl-2-(1,1,2,2-tetrafluoroethylsulfonyl)imidazole] was tested. Which ED50 [1] did it give?
Answer: Its ED50 is 1.3 mg/kg.

Question: With `FC(F)(F)Sc1nc(-c2ccccc2)c(-c2ccccc2)n1C1CCCCO1` (stereo not drawn) [Example 5, 4,5-Diphenyl-1-(2-tetrahydropyranyl)-2-trifluoromethylthiomidazole] as the compound, how does the ED50 [1] read?
Answer: The ED50 was 18 mg/kg.

Question: `CCOC(=O)n1c(SC(F)(F)C(F)F)nc(-c2ccc(F)cc2)c1-c1ccc(F)cc1` [Example 6, 1-Ethoxycarbonyl-4,5-bis(4-fluorophenyl)-2-(1,1,2,2-tetrafluoroethylthio)imidazole] was tested. Which ED50 [1] did it give?
Answer: Its ED50 is 0.15 mg/kg.

Question: Which ED50 [1] does the source give for `Cn1c(S(=O)(=O)C(F)(F)C(F)F)nc(-c2ccc(F)cc2)c1-c1ccc(F)cc1` [Example 8, 4,5-bis(4-Fluorophenyl)-1-methyl-2-(1,1,2,2-tetrafluoroethylsulfonyl)imidazole] here?
Answer: The ED50 was 1 mg/kg.

Question: For `CN(C)C(=S)n1c(SC(F)(F)C(F)F)nc(-c2ccccc2)c1-c1ccccc1` [Example 9, 1-(N,N-Dimethylthiocarbamoyl)-4,5-diphenyl-2-(1,1,2,2-tetrafluoroethylthio)imidazole], which “% paw volume reduction from control” value (@ 15 mg/Kg, oral, rats) is on record?
Answer: The value was 53%.

Question: And the ED50 [1]?
Answer: Its ED50 is less than 15 mg/kg.

Question: `CNC(=O)N(C)C(=O)n1c(SC(F)(F)C(F)F)nc(-c2ccccc2)c1-c1ccccc1` [Example 11, N-Methyl-N-(methylaminocarbonyl)-4,5-diphenyl-2-(1,1,2,2-tetrafluoroethylthio)imidazole-1-carboxamide] was tested. Which ED50 [1] did it give?
Answer: Its ED50 is 1.8 mg/kg.

Question: Which results are given for `O=C(OCc1ccccc1)n1c(SC(F)(F)C(F)F)nc(-c2ccccc2)c1-c1ccccc1` [Example 12, 1-Benzyloxycarbonyl-4,5-diphenyl-2-(1,1,2,2-tetrafluoroethylthio)imidazole]?
Answer: % paw volume reduction from control (@ 25 mg/Kg, oral, rats): 69%; ED50 [1]: < 25 mg/kg

Question: How did the ED50 [1] turn out when `CC(C)(C)C(=O)OCn1c(S(=O)(=O)C(F)(F)C(F)F)nc(-c2ccc(F)cc2)c1-c1ccc(F)cc1` [Example 13, 4,5-bis(4-Fluorophenyl)-1-(pivaloyloxymethyl)-2-(1,1,2,2-tetrafluoroethylsulfonyl)imidazole] was run?
Answer: The ED50 was 1.2 mg/kg.

Question: With `O=S(=O)(c1ccccc1)n1c(SC(F)(F)C(F)F)nc(-c2ccccc2)c1-c1ccccc1` [Example 14, 1-Benzenesulfonyl-4,5-diphenyl-2-(1,1,2,2-tetrafluoroethylthio)imidazole] as the compound, how does the ED50 [1] read?
Answer: Its ED50 is roughly 35 mg/kg.

Question: Which ED50 [1] does the source give for `CC(=O)n1c(SC(F)(F)C(F)F)nc(-c2ccccc2)c1-c1ccccc1` [Example 15, 1-Acetyl-4,5-diphenyl-2-(1,1,2,2-tetrafluoroethylthio)imidazole] here?
Answer: The ED50 was 0.9 mg/kg.

Question: `FC(F)C(F)(F)Sc1nc(-c2ccccc2)c(-c2ccccc2)n1C1CCCO1` (stereo not drawn) [Example 16, 4,5-Diphenyl-2-(1,1,2,2-tetrafluoroethylthio)-1-(2-tetrahydrofuranyl)imidazole] was tested. Which ED50 [1] did it give?
Answer: Its ED50 is 2.7 mg/kg.

Question: `O=S(=O)(c1ccccc1)n1c(SC(F)(F)F)nc(-c2ccc(F)cc2)c1-c1ccc(F)cc1` [Example 17, 1-Benzenesulfonyl-4,5-bis(4-fluorophenyl)-2-(trifluoromethylthio)imidazole] was tested. Which ED50 [1] did it give?
Answer: Its ED50 is 0.18 mg/kg.

Question: `CC(C)n1c(SC(F)(F)C(F)F)nc(-c2ccc(F)cc2)c1-c1ccc(F)cc1` [Example 18, 4,5-bis(4-Fluorophenyl)-1-isopropyl-2-(1,1,2,2-tetrafluoroethylthio)imidazole] was tested. Which ED50 [1] did it give?
Answer: Its ED50 is 10 mg/kg.

Question: How did the ED50 [1] turn out when `Cn1c(SC(F)(F)C(F)F)nc(-c2ccc(F)cc2)c1-c1ccc(F)cc1` [Example 19] was run?
Answer: The ED50 was 2.3 mg/kg.

Question: For `CCn1c(SC(F)(F)C(F)F)nc(-c2ccc(F)cc2)c1-c1ccc(F)cc1` [Example 20], which ED50 [1] is on record?
Answer: Its ED50 is 3 mg/kg.

Question: Which ED50 [1] does the source give for `CCCn1c(SC(F)(F)C(F)F)nc(-c2ccc(F)cc2)c1-c1ccc(F)cc1` [Example 21] here?
Answer: Its ED50 is 14 mg/kg.

Question: `C=CCn1c(SC(F)(F)C(F)F)nc(-c2ccc(F)cc2)c1-c1ccc(F)cc1` [Example 22] was tested. Which ED50 [1] did it give?
Answer: Its ED50 is 1.3 mg/kg.

Question: With `CCn1c(S(=O)(=O)C(F)(F)C(F)F)nc(-c2ccc(F)cc2)c1-c1ccc(F)cc1` [Example 23] as the compound, how does the ED50 [1] read?
Answer: Its ED50 is 4.8 mg/kg.

Question: Which results are given for `CCCn1c(S(=O)(=O)C(F)(F)C(F)F)nc(-c2ccc(F)cc2)c1-c1ccc(F)cc1` [Example 24]?
Answer: % paw volume reduction from control (@ 9 mg/Kg, oral, rats): 33%; ED50 [1]: > 9 mg/kg

Question: How did the ED50 [1] turn out when `CCCCn1c(S(=O)(=O)C(F)(F)C(F)F)nc(-c2ccc(F)cc2)c1-c1ccc(F)cc1` [Example 25] was run?
Answer: The ED50 was 5 mg/kg.

Question: With `C=CCn1c(S(=O)(=O)C(F)(F)C(F)F)nc(-c2ccc(F)cc2)c1-c1ccc(F)cc1` [Example 26] as the compound, how does the ED50 [1] read?
Answer: Its ED50 is 2 mg/kg.

Question: Which results are given for `CN(C)CCn1c(S(=O)(=O)C(F)(F)C(F)F)nc(-c2ccc(F)cc2)c1-c1ccc(F)cc1` [Example 27]?
Answer: % paw volume reduction from control (@ 7 mg/Kg, oral, rats): 76%; ED50 [1]: < 7 mg/kg

Question: With `Cn1c(SC(F)(F)F)nc(-c2ccc(F)cc2)c1-c1ccc(F)cc1` [Example 28] as the compound, how does the ED50 [1] read?
Answer: Its ED50 is 2.1 mg/kg.

Question: Which “% paw volume reduction from control” value (@ 3 mg/Kg, oral, rats) does the source give for `Cn1c(S(=O)(=O)C(F)(F)F)nc(-c2ccc(F)cc2)c1-c1ccc(F)cc1` [Example 29] here?
Answer: Its value is 33%.

Question: And the ED50 [1]?
Answer: The ED50 was greater than 3 mg/kg.

Question: Which results are given for `COc1ccc(-c2nc(S(=O)(=O)C(F)(F)CF)n(C)c2-c2ccc(OC)cc2)cc1` [Example 31]?
Answer: % paw volume reduction from control (@ 20 mg/Kg, oral, rats): 36%; ED50 [1]: > 20 mg/kg

Question: How did the ED50 [1] turn out when `CS(=O)(=O)n1c(SC(F)(F)C(F)F)nc(-c2ccccc2)c1-c1ccccc1` [Example 32] was run?
Answer: The ED50 was roughly 21 mg/kg.

Question: `O=C(c1ccccc1)n1c(SC(F)(F)C(F)F)nc(-c2ccccc2)c1-c1ccccc1` [Example 34] was tested. Which ED50 [1] did it give?
Answer: Its ED50 is 2.3 mg/kg.

Question: With `CC(C)Cc1ccc(C(C)C(=O)O)cc1` (stereo not drawn) [Ibuprofen, reference compound] as the compound, how does the ED50 [1] read?
Answer: Its ED50 is 100 mg/kg.

Question: How did the ED50 (po) turn out when `COc1ccc2c(c1)c(CC(=O)O)c(C)n2C(=O)c1ccc(Cl)cc1` [Indomethacin, reference compound] was run?
Answer: Its ED50 is 0.3 mg/kg.

Question: Which ED50 [1] does the source give for `CCCCC1C(=O)N(c2ccccc2)N(c2ccccc2)C1=O` [Phenylbutazone, reference compound] here?
Answer: Its ED50 is 10 mg/kg.

Question: With “Mixture of 1-Ethoxycarbonyl-4-(4-fluorophenyl)-5-phenyl-2-(1,1,2,2-tetrafluoroethylthio)imidazole and 1-Ethoxycarbonyl-5-(4-fluorophenyl)-4-phenyl-2-(1,1,2,2-tetrafluoroethylthio)imidazole [Example 7]” as the compound, how does the “A.A. ED50 % (ED50% decrease from control paw volume)” value [1] read?
Answer: Its value is 0.65 mg/kg.
